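Cultured in 96-well plates, cells were exposed to test compound for 48 hours across five concentrations. GI50 marks 50% less growth.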 Active and inactive are the calls of the source. Rule as the data show it: active = GI50 up to about 1.1 µM and inactive = higher.

Experiment in all cases: DTP human tumour cell line panel, 48 h
Assay [1] has as its system CCRF-CEM.
For assay [2], the system named is HOP-92.
Assay [3] has as its system IGROV-1.
The subject of assay [4] is KM12.
The test system of assay [5] is LOX IMVI.
The test system of assay [6] is MCF7.
The subject of assay [7] is NCI-H226.
Assay [8] relates to OVCAR-3.
Assay [9] relates to OVCAR-4.
For assay [10], the system named is OVCAR-8.
Assay [11] has as its system RPMI-8226.
The subject of assay [12] is SF-268.
Assay [13] deals with SK-MEL-5.
In assay [14] the test system is SK-OV-3.
In assay [15] the test system is SNB-19.
In assay [16] the test system is SNB-75.
Assay [17] has as its system SR.
Assay [18] deals with T47D.
For assay [19], the system named is UACC-62.
In assay [20] the test system is MDA-MB-231.

One may read the GI50 as the concentration that inhibits growth by half. For `O=C(Nc1ccccc1)Nn1c(-c2cccs2)nc2ccc(I)cc2c1=O`, the GI50 was 20.5 µM (inactive) in [1]; 6.3 µM (inactive) in [2]; 19.7 µM (inactive) in [3]; 31.3 µM (inactive) in [4]; 19.2 µM (inactive) in assay [5]; 29.1 µM (inactive) in assay [6]. The GI50 was 28.8 µM (inactive) in [7]; 11 µM (inactive) in assay [8]; 16.9 µM (inactive) in assay [9]; 33.3 µM (inactive) in assay [10]; 19.1 µM (inactive) in assay [11]; 30.4 µM (inactive) in [12]. Further, the GI50 in assay [13] is 17.1 µM (inactive); in assay [14] it was 20.9 µM (inactive); in assay [15] it was 42.2 µM (inactive); in assay [16], 2.74 µM (inactive); in assay [17], 16.8 µM (inactive); in [18], 3.33 µM (inactive). In addition, the GI50 in assay [19] was 28.7 µM (inactive).
For `COC1(OC)N=C(N)C2(C#N)C(C)=C3NCN(C)N=C3C12C#N` (stereo unspecified), the GI50 is > 10 µM (inactive) in assay [1]; > 100 µM (inactive) in assay [2]; > 100 µM (inactive) in assay [3]; > 100 µM (inactive) in [4]; > 100 µM (inactive) in [5]; > 100 µM (inactive) in assay [6]. The GI50 in [20], in [7], in assay [8], in assay [10], in assay [11] and in [12] was > 100 µM (inactive) each time. The GI50 in [13], in [14], in [15], in assay [16], in assay [18] and in assay [19] was > 100 µM (inactive) throughout.
As for `CCOC(=O)c1cc2nc3ccccc3c(=O)n2c2ccccc12`, the GI50 in assay [1], in assay [2], in [3], in [4], in assay [5] and in assay [6] was > 10 µM (inactive) each time. The GI50 in assay [20], in [7], in [8], in assay [9], in assay [10] and in [11] was > 10 µM (inactive) in each case. The GI50 was > 10 µM (inactive) in [12]; > 10 µM (inactive) in [13]; > 10 µM (inactive) in assay [14]; > 10 µM (inactive) in assay [15]; 6.32 µM (inactive) in assay [16]; > 10 µM (inactive) in [18]. Besides, the GI50 in [19] is > 10 µM (inactive).
Consider `OC(c1ccc(F)cc1)C(F)(F)c1nc(-c2ccccc2)no1` (stereo unspecified), for which the GI50 in [1] was 14.3 µM (inactive); in assay [2] it was 23.7 µM (inactive); in assay [3] it was > 100 µM (inactive); in assay [5], 86.5 µM (inactive); in assay [6] it was 23.7 µM (inactive); in assay [20], 2.43 µM (inactive). The GI50 in assay [8] is 16.4 µM (inactive); in assay [9], 20.7 µM (inactive); in assay [10], > 100 µM (inactive); in [12] it was 25.3 µM (inactive); in assay [15], 36.4 µM (inactive); in assay [18], 23.7 µM (inactive). Further, in assay [19], the GI50 was 18.2 µM (inactive).
Take `COC(=O)/C=C1/SC(/C(=C(/[O-])OC)[n+]2ccc3ccccc3c2)=NC1=O`: the GI50 in assay [1] is > 100 µM (inactive); in assay [3], > 100 µM (inactive); in [4] it was > 100 µM (inactive); in assay [5] it was > 100 µM (inactive); in assay [6], > 100 µM (inactive); in [20], 21.9 µM (inactive). For the same compound, the GI50 in assay [7], in assay [10], in assay [11], in assay [12], in assay [13] and in assay [14] was > 100 µM (inactive) each time. Moreover, the GI50 in assay [15] is > 100 µM (inactive); in assay [16], 90.2 µM (inactive); in [17], 63 µM (inactive); in assay [18], > 100 µM (inactive); in assay [19], > 100 µM (inactive).
Consider `COc1ccc(N2C(=O)C3c4[nH]c5cc(Cl)ccc5c4C4CCC(C(C)(C)C)CC4C3C2=O)cc1` (stereo unspecified), for which the GI50 was 37.9 µM (inactive) in assay [1]; > 100 µM (inactive) in assay [3]; 65.8 µM (inactive) in [4]; 33.7 µM (inactive) in assay [6]; > 100 µM (inactive) in [20]; > 100 µM (inactive) in assay [7]. In addition, the GI50 was 67.6 µM (inactive) in [8]; 94.4 µM (inactive) in assay [9]; > 100 µM (inactive) in assay [10]; 53.2 µM (inactive) in assay [11]; > 100 µM (inactive) in [12]; > 100 µM (inactive) in [13]. Moreover, the GI50 in assay [14] was > 100 µM (inactive); in assay [15] it was > 100 µM (inactive); in assay [16], > 100 µM (inactive); in assay [17], 12.6 µM (inactive); in [18], 66.4 µM (inactive); in [19] it was > 100 µM (inactive).
Regarding `CC(Cl)CC(=O)OCC1CCCN2CCCCC12` (stereo unspecified), the GI50 in assay [1], in assay [2], in assay [4], in assay [5], in [6] and in assay [20] was > 100 µM (inactive) in each case. The GI50 in assay [7], in [8], in [9], in [10], in assay [11] and in assay [12] was > 100 µM (inactive) in each case. The GI50 in assay [13], in [14], in assay [15], in assay [16], in assay [18] and in assay [19] was > 100 µM (inactive) each time.
As to `CCOC(=O)n1c2ccccc2c(=O)n1CCO`, the GI50 in assay [1], in [3], in [4], in assay [6], in assay [20] and in assay [7] was > 100 µM (inactive) each time. The GI50 in [8], in [9], in assay [10], in assay [12], in [13] and in [14] was > 100 µM (inactive) in each case. Besides, the GI50 was > 100 µM (inactive) in assay [15]; 28.8 µM (inactive) in assay [16]; > 100 µM (inactive) in [17]; 7.45 µM (inactive) in assay [18]; > 100 µM (inactive) in [19].
Regarding `O=[N+]([O-])c1cc2c(c3nonc13)OCCCCO2`, the GI50 in assay [1] was 1.5 µM (inactive); in assay [2], 12.7 µM (inactive); in [3], 9.16 µM (inactive); in assay [4] it was 4.37 µM (inactive); in [5] it was 2.81 µM (inactive); in assay [6], 7.76 µM (inactive). Also, the GI50 was 3.31 µM (inactive) in assay [20]; 14.4 µM (inactive) in [7]; 2.19 µM (inactive) in assay [8]; 14.2 µM (inactive) in assay [9]; 4.36 µM (inactive) in assay [10]; 3.7 µM (inactive) in [11]. The GI50 in assay [12] was 3.37 µM (inactive); in assay [13], 8.61 µM (inactive); in [14], 26.4 µM (inactive); in assay [15] it was 13.4 µM (inactive); in [16], 10.6 µM (inactive); in [18], 26.5 µM (inactive). For the same compound, the GI50 in assay [19] was 5.77 µM (inactive).
For the compound `COc1ccc2nc3cc(Cl)ccc3c(NCCCN3CCN(CCCNc4ccc5nnn6c7ccccc7c(=O)c4c56)CC3)c2c1`, the concentration for 50% growth inhibition (GI50) in assay [1] is 0.17 µM (active); in [2], > 25 µM (inactive); in assay [3] it was 0.309 µM (active); in assay [4], 0.277 µM (active); in assay [5], 0.512 µM (active); in [6], 0.225 µM (active). For the same compound, the GI50 in [20] was 6.32 µM (inactive); in assay [7], > 25 µM (inactive); in assay [8], > 25 µM (inactive); in assay [10], 1.42 µM (inactive); in assay [12] it was > 7.36 µM (inactive); in [13], > 25 µM (inactive). The GI50 in [14], in assay [15], in assay [16], in assay [18] and in assay [19] was > 25 µM (inactive) throughout.
`CCc1n[nH]c(=O)[nH]1`: the GI50 in assay [1], in assay [3], in [4], in [5], in assay [6] and in [20] was > 100 µM (inactive) in each case. Moreover, the GI50 in assay [8], in [10], in assay [12], in assay [13], in assay [14] and in assay [15] was > 100 µM (inactive) throughout. Moreover, the GI50 in [16], in assay [17], in [18] and in assay [19] was > 100 µM (inactive) throughout.

The record behind these values is ChEMBL document CHEMBL1201862, “PubChem BioAssay data set” (2004).
